Experimental data as given in US20090275667A1, “USE OF ALLICIN AS PRESERVATIVE, AS DISINFECTANT, AS ANTIMICROBIAL OR AS BIOCIDAL AGENT” (Stone Island Holdings Ltd, priority 2003, published 2009).

What was measured:
[1] = test system: E. coli and Salmonella growth; assay: Preservation of hamburger meat samples against bacterial growth; format: cell-based; conditions: for time bacterial overgrowth prevented: 10 kg hamburger meat
Description: A range of concentrations of liquid allicin (0 ppm to 500 ppm) was applied to 10 kg samples of hamburger meat to determine how long bacterial growth could be prevented. These tests were compared to the normal use of existing preservatives (including nitrates and phosphates).
To test for bacterial growth, small samples of meat were cut from the test piece of meat and, using standard methods of analysis, were checked for E. coli and Salmonella growth.

[2] = test system: chickens; assay: In vivo trial of allicin in the drinking water of chickens, two sheds
Experimental: An in vivo trial has also been conducted in which two adjacent sheds each of 10,000 chickens were compared. Each shed was supplied with 1000 litres of water per day. For 7 days, the water for one shed had 1.5 litres of allicin solution (1000 ppm) added to the water supply, with 1 litre of allicin solution (1000 ppm) being added per day for a further 3 days. In the control shed, no allicin solution was added.
After just a few days, an improvement in the appearance of the health of the chickens in the allicin-treated shed was noted. For example, the combs of the chickens appeared redder and there was an increase of 2 percent in egg production. The vitality of the chickens improved. In contrast, in the control barn, E. coli infection was observed. Following completion of the trial, the livers of several of the birds were examined.

[3] = test system: Melissococcus plutonius; assay: Inhibition of bacterial growth in broth by Allicin (Study 2); format: cell-based; set-up: key: +: Growth present; +^a: weak growth seen, occurred later than lower concentrations; conditions: 34° C.
Experimental: (§1) Allicin liquid (nominal concentration=1000 ppm. ai) was obtained from Allicin International Ltd and kept refrigerated.
(§2) The bacteria tested were Paenibacillus larvae subsp. larvae, Melissococcus plutonium, Brevibacillus laterosporus and Paenibacillus alvei. All isolates were freshly isolated from diseased material sent to the NBU diagnostic laboratory.
(§3) P. larvae subsp. larvae, B. laterosporus and P. alvei were grown on brain heart infusion plus thiamine (BHIT) agar and broth (SOP NBU/014) under aerobic conditions and M. plutonius was grown on SYPG agar and broth (SOP NBU/015) under anaerobic conditions. All experiments were carried out at 34° C. The concentrations of Allicin liquid investigated were 500, 250, 100, 50, 25 and 10 ppm. Broth was made up at twice the usual concentration, so that when the Allicin-containing component was added, the medium was at the correct strength for bacterial growth. Allicin solution was diluted in sterile deionised water to give the desired concentration when added to autoclaved broth. […] Further controls were included, which were the media plus an appropriate volume of Allicin, but not inoculated with bacteria. This would indicate if there were any bacteria present in the test item that may influence the results seen. Both aerobic and anaerobic controls were included.
(§4) Bacteria were isolated from diseased samples and subcultured on agar plates until pure, when they were inoculated into broth cultures. Cultures of M. plutonius were isolated anaerobically, then plated out and incubated both aerobically and anaerobically, to confirm that the isolate investigated was this bacterium. A similar microbe, Enterococcus faecalis, can sometimes be isolated from EFB-infected samples and is morphologically difficult to distinguish from M. plutonius. However, the former bacterium grows very well aerobically, whereas M. plutonius is unable to replicate. Thus, if an isolate is able to grow aerobically, it is not M. plutonius. This control mechanism was used throughout the experimental procedures to ensure that the correct organism was tested.
(§5) Each bacterium was freshly grown in a test tube containing 5 ml broth. A loopful (5 μl) of this bacterial suspension was removed from the culture and inoculated into each test tube according to SOP NBU/131. The same inoculum source for each strain was used for all Allicin dilutions, and all experiments were done in triplicate.
(§6) Where growth occurred in the presence of Allicin, one replicate from each concentration for each bacterium was plated out on the appropriate agar to identify the bacteria that had grown in the broth, to confirm the results (SOP NBU/131). Once growth was evident on this confirmation plate, the culture was assessed with respect to the colony morphology and Gram stained (according to SOP NBU/111) as a further confirmatory test. This is a suitable method as each bacterium tested has distinctive morphology both macro- and microscopically.

[4] = test system: Paenibacillus alvei; assay: as above; format: cell-based; set-up: key: +: Growth present; +^a: weak growth seen, occurred later than lower concentrations; conditions: 34° C.
Experimental: as §1, §2, §3, §4, §5, §6

[5] = test system: Brevibacillus laterosporus; assay: as above; format: cell-based; set-up: key: +: Growth present; +^a: weak growth seen, occurred later than lower concentrations; conditions: 34° C.
Experimental: as §1, §2, §3, §4, §5, §6

[6] = test system: Paenibacillus larvae subsp. larvae; assay: as above; format: cell-based; set-up: key: +: Growth present; +^a: weak growth seen, occurred later than lower concentrations; conditions: 34° C.
Experimental: as §1, §2, §3, §4, §5, §6

## C=CCS[S+]([O-])CC=C (stereo not drawn) [allicin, Allicin]
[1]; 250 ppm
  time bacterial overgrowth prevented: up to 7 days
[1]; 375 ppm
  time bacterial overgrowth prevented: up to 10 days
[1]; 500 ppm
  time bacterial overgrowth prevented: up to 14 days
[1]; meat, equivalent to 0.0250% w/v
  allicin concentration demonstrating prevention of growth of E. coli and Salmonella: 250 ppm
[2]; allicin solution (1000 ppm) 1.5 litres/day in 1000 litres water for 7 days, then 1 litre/day for 3 days, vs control shed
  increase in egg production: 2%
[2]; allicin-treated shed vs control shed
  resistance to chicken bloodlice: improved resistance
[2]; livers examined after completion of the trial, vs control chickens
  evidence of E. coli infection in livers: did not
[3]; 10 ppm
  Growth present at test item concentration: +
[3]; 25 ppm
  Growth present at test item concentration: +
[3]; 50 ppm
  Growth present at test item concentration: +
[3]; 100 ppm
  Growth present at test item concentration: +^a
[4]; 10 ppm
  Growth present at test item concentration: +
[4]; 25 ppm
  Growth present at test item concentration: +
[4]; 50 ppm
  Growth present at test item concentration: +
[4]; 100 ppm
  Growth present at test item concentration: +^a
[5]; 10 ppm
  Growth present at test item concentration: +
[5]; 25 ppm
  Growth present at test item concentration: +
[5]; 50 ppm
  Growth present at test item concentration: +
[5]; 100 ppm
  Growth present at test item concentration: +^a
[6]; 10 ppm
  Growth present at test item concentration: +
[6]; 25 ppm
  Growth present at test item concentration: +^a
